# Experimental data from patent publication US10851108B2, “Substituted bicyclic heterocyclic compounds” (BRISTOL-MYERS SQUIBB COMPANY, priority 2016, dated 2020).
# pIC50: −log10 of the molar value.
# Experiments:
# Format in all cases: cell-based
# hERG = hERG (Homo sapiens (Human), UniProt Q12809); assay: hERG Manual Patch Clamp Assay; conditions: for inhibition at 1 µM / inhibition at 3 µM / inhibition at 10 µM: human, HEK 293 cells stably expressing hERG channels; for inhibition at 1 µM: pH 7.4, 1 μM, read-out: hERG EP IC50 (% Inhibition at 1 μM); for inhibition at 3 µM: pH 7.4, 3 uM, read-out: hERG EP % Inhibition at 3 uM; for inhibition at 10 µM: pH 7.4, 10 uM, read-out: hERG EP % Inhibition at 10 uM
# hERG, sequence (Q12809 whole entry): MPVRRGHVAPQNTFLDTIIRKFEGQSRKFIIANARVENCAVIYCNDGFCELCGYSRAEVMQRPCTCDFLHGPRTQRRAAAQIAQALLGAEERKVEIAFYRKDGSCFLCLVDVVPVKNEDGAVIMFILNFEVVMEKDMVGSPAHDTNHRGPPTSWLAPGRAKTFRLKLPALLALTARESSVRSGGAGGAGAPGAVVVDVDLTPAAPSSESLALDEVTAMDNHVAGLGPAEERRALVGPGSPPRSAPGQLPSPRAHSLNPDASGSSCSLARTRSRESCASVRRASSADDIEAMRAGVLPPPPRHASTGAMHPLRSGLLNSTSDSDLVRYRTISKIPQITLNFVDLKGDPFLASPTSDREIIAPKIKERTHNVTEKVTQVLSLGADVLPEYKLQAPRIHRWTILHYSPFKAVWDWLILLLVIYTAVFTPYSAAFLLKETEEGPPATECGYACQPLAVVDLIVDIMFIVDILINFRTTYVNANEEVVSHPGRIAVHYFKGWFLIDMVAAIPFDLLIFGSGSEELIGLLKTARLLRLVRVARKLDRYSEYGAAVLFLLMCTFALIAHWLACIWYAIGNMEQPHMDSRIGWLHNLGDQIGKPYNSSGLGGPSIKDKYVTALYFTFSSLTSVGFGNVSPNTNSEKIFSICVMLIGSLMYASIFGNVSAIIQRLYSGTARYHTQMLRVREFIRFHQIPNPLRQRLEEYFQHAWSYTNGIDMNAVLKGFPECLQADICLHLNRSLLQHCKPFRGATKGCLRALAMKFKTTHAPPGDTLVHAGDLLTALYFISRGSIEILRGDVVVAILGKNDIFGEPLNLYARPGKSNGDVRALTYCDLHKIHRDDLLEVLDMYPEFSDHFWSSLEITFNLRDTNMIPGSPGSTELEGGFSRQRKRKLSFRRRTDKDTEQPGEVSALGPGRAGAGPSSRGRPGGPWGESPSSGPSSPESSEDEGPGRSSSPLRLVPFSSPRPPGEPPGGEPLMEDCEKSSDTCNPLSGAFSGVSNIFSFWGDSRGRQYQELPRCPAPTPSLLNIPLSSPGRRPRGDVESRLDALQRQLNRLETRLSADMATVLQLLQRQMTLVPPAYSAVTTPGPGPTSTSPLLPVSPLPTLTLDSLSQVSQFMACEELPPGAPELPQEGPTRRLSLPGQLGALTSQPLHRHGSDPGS
# Protocol: hERG Manual Patch Clamp Assay
# hERG electrophysiology assay: The experimental compounds were assessed for hERG activity on HEK 293 cells stably expressing hERG channels using patch clamp technique. Coverslips plated with hERG expressing cells were placed in the experimental chamber and were perfused with a solution composed of (in mM): 140 NaCl, 4 KCl, 1.8 CaCl2, 1 MgCl2, 10 Glucose, 10 HEPES (pH 7.4, NaOH) at room temperature. Borosilicate patch pipettes had tip resistances of 2-4 Mohms when filled with an internal solution containing: 130 KCl, 1 MgCl2, 1 CaCl2, 10 EGTA, 10 HEPES, 5 ATP-K2 (pH 7.2, KOH). The cells were clamped at −80 mV in whole cell configuration using an Axopatch 200B (Axon instruments, Union City, Calif.) patch clamp amplifier controlled by pClamp (Axon instruments) software. Upon formation of a gigaseal, the following voltage protocol was repeatedly (0.05 Hz) applied to record tail currents: depolarization step from −80 mV to +20 mV for 2 seconds followed by a hyperpolarization step to −65 mV (3 seconds) to elicit tail currents. Compounds were applied after stabilization of tail current. First, tail currents were recorded in presence of extracellular solution alone (control) and subsequently, in extracellular solution containing increasing compound concentrations. Each compound concentration was applied for 2-5 minutes. The percentage inhibition at each concentration was calculated as reduction in peak tail current with respect to the peak tail current recorded in the presence of control solution. Data analysis was performed in a custom made template. The percent inhibitions at different concentrations were plotted to obtain a concentration response curve, which was subsequently fitted with a four parameter equation to calculate hERG IC50 value.
# A lower hERG % Inhibition value indicates less inhibition of the hERG current
# hROMK (human Kir1.1) = hROMK (human Kir1.1) (Homo sapiens (Human), UniProt P48048); assay: Thallium Flux Assay; conditions: CHO T-Rex hROMK stable cell line, 10-point concentration response; read-out: hROMK Th+ Flux IC50
# hROMK (human Kir1.1), sequence (P48048 whole entry): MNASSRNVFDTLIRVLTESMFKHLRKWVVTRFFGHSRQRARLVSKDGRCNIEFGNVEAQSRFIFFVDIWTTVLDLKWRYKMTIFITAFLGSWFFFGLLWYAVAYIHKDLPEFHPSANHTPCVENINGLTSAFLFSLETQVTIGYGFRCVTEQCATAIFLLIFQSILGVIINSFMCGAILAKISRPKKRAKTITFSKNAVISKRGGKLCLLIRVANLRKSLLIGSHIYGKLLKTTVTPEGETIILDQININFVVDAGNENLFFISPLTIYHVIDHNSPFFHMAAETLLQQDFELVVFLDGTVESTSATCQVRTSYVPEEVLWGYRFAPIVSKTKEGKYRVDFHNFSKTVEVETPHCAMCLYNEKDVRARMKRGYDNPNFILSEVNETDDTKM
# In short: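 CHO T-Rex cells, doxycycline-induced (0.5 μg/ml) one day before, FluxOR dye-loaded; compounds 30 min, then Tl+ stimulus (final 3 mM Tl2SO4, 0.15 mM K2SO4) with ouabain in chloride-free buffer. Fluorescence 488/525 nm for 90 s; IC50 from 10-point curve; DMSO 0.5 or 1%.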
# hROMK = hROMK (Homo sapiens (Human), UniProt P48048); assay: ROMK Manual Patch Clamp Assay; conditions: whole-cell manual patch clamp, hROMK expressing cells; read-out: hROMK EP IC50
# hROMK, sequence (P48048 whole entry): as above
# Protocol: ROMK Manual Patch Clamp Assay
# Cell culture conditions: Cells were maintained in conditions similar to those for Thallium flux assay. hROMK channel expression was induced by adding 0.6 μg/ml of Doxycycline 16-24 hrs prior to the experiments. On the day of experiment, the cells were dissociated using Versene, resuspended in growth media and plated onto coverslips 15 minutes prior to use.
# Electrophysiology: The coverslip plated with cells was placed in the experiment chamber perfused with bath solution composed of (in mM): 135 NaCl, 5 KCl, 2 CaCl2, 1 MgCl2, 10 HEPES, 5 Glucose (pH 7.4). Patch pipettes with resistance between 2-5 Megaohms, when filled with a solution containing (in mM): 135 KCl, 1 EGTA, 1 MgCl2, 10 HEPES, 2 Na2ATP (pH 7.3), were used to form gigaseals. The cells were voltage clamped at −75 mV in whole-cell configuration using an Axopatch 200b or Multiclamp 700b (Molecular Devices) amplifier controlled by pClamp Software (Molecular Devices). The current was recorded by applying a voltage step to −120 mV every 10 seconds. For each compound, 4-6 concentrations were applied for 3-8 minutes in a successive manner starting with the lowest concentration. At the end of the experiment, the cells were perfused with bath solution containing 2 mM Ba^2+ to isolate the contribution of hROMK current.
# Data analysis: Raw current values (5 traces each for control, different compound concentration and Ba^2+ treatment groups) were exported from Clampfit into Microsoft Excel where the current remaining after application of Ba^2+ was subtracted from raw current to obtain hROMK specific current. These hROMK current values (average of 5 traces for each group) were then imported into a custom made template to generate a concentration response curve, which was subsequently fitted with a four parameter equation to calculate the IC50 value of the test compound.
# The data in Table 4 is reported with two significant figures.
SMILES,pIC50 (hROMK (human Kir1.1)),pIC50 (hROMK),inhibition at 1 µM (hERG) [%],inhibition at 3 µM (hERG) [%],inhibition at 10 µM (hERG) [%],"hERG EP IC50 (% Inhibition at 1 μM) (hERG; 1 μM, HEK 293 cells stably expressing hERG) [% @1 μM]"
"Cc1c(C(O)CN2CCc3nc(-n4ccc5cc(C#N)ccc54)ncc3C2)ccc2c1COC2=O (single isomer, unassigned) [Example 16-I, 1-(6-(2-hydroxy-2-(4-methyl-1-oxo-1,3-dihydroisobenzofuran-5-yl)ethyl)-5,6,7,8-tetrahydropyrido[4,3-d]pyrimidin-2-yl)-1H-indole-5-carbonitrile]",6.42,,25,,,
"Cc1c(C(O)CN2CCc3cc(Nc4ccc(C#N)c(F)c4)ccc3C2)ccc2c1COC2=O (single isomer, unassigned) [Example 32-I, 2-fluoro-4-((2-(2-hydroxy-2-(4-methyl-1-oxo-1,3-dihydroisobenzofuran-5-yl)ethyl)-1,2,3,4-tetrahydroisoquinolin-6-yl)amino) benzonitrile]",7.30,,100,,,
"Cc1c(C(O)CN2CCc3nc(-n4ccc5c(C#N)cccc54)ncc3C2)ccc2c1COC2=O (single isomer, unassigned) [Example 1-I, 1-(6-(2-hydroxy-2-(4-methyl-1-oxo-1,3-dihydroisobenzofuran-5-yl)ethyl)-5,6,7,8-tetrahydropyrido[4,3-d]pyrimidin-2-yl)-1H-indole-4-carbonitrile]",7.27,,78,,,
"Cc1c(C(O)CN2CCc3nc(Nc4ccc(C#N)c(F)c4)ncc3C2)ccc2c1COC2=O (single isomer, unassigned) [Example 28-I, 2-fluoro-4-((6-(2-hydroxy-2-(4-methyl-1-oxo-1,3-dihydroisobenzofuran-5-yl)ethyl)-5,6,7,8-tetrahydropyrido [4,3-d]pyrimidin-2-yl)amino)benzonitrile]",6.92,,91,,,
"Cc1c(C(O)CN2CCc3nc(-n4ccnc4C)ncc3C2)ccc2c1COC2=O (single isomer, unassigned) [Example 59-I, 5-(1-hydroxy-2-(2-(2-methyl-1H-imidazol-1-yl)-7,8-dihydropyrido[4,3-d]pyrimidin-6(5H)-yl)ethyl)-4-methyl isobenzofuran-1(3H)-one]",6.65,,13,27,51,
"Cc1c(C(O)CN2CCc3nc(Nc4cccnc4)ncc3C2)ccc2c1COC2=O (single isomer, unassigned) [Example 54-I, 5-(1-hydroxy-2-(2-(pyridin-3-ylamino)-7,8-dihydropyrido[4,3-d]pyrimidin-6(5H)-yl)ethyl)-4-methylisobenzofuran-1(3H)-one]",6.66,,32,,,
"Cc1c(C(O)CN2CCc3nc(-n4ccnc4)ncc3C2)ccc2c1COC2=O (single isomer, unassigned) [Example 66-I, 5-(2-(2-(1H-imidazol-1-yl)-7,8-dihydro-pyrido[4,3-d]pyrimidin-6(5H)-yl)-1-hydroxyethyl)-4-methylisobenzofuran-1(3H)-one]",6.44,,6,14,30,
"Cc1c(C(O)CN2CCc3cc(Nc4ccc(C#N)c(F)c4)ccc3C2)ccc2c1COC2=O (single isomer, unassigned) [Example 32-II, 2-fluoro-4-((2-(2-hydroxy-2-(4-methyl-1-oxo-1,3-dihydroisobenzofuran-5-yl)ethyl)-1,2,3,4-tetrahydroisoquinolin-6-yl)amino) benzonitrile]",7.08,,,,,97
"Cc1c(C(O)CN2CCc3nc(-n4ncc5c(C#N)cncc54)ncc3C2)ccc2c1COC2=O (single isomer, unassigned) [Example 43-I, 1-(6-(2-hydroxy-2-(4-methyl-1-oxo-1,3-dihydroisobenzofuran-5-yl)ethyl)-5,6,7,8-tetrahydropyrido[4,3-d]pyrimidin-2-yl)-1H-pyrazolo[3,4-c]pyridine-4-carbonitrile]",6.74,,16,,,
"Cc1c(C(O)CN2CCc3nc(-n4ccc5ncccc54)ncc3C2)ccc2c1COC2=O (single isomer, unassigned) [Example 36-I, 5-(2-(2-(1H-pyrrolo[3,2-b]pyridin-1-yl)-7,8-dihydropyrido[4,3-d]pyrimidin-6(5H)-yl)-1-hydroxyethyl)-4-methyl-isobenzofuran-1(3H)-one]",6.74,,12,,,

# Now those with a higher pIC50 (hROMK (human Kir1.1)), led by results:
pIC50 (hROMK (human Kir1.1)),pIC50 (hROMK),SMILES,inhibition at 1 µM (hERG) [%],inhibition at 3 µM (hERG) [%],inhibition at 10 µM (hERG) [%],"hERG EP IC50 (% Inhibition at 1 μM) (hERG; 1 μM, HEK 293 cells stably expressing hERG) [% @1 μM]"
7.36,7.92,"Cc1c(C(O)CN2CCc3nc(-n4cc(C#N)cn4)ncc3C2)ccc2c1COC2=O (single isomer, unassigned) [Example 56-I, 1-(6-(2-hydroxy-2-(4-methyl-1-oxo-1,3-dihydroisobenzofuran-5-yl)ethyl)-5,6,7,8-tetrahydropyrido[4,3-d]pyrimidin-2-yl)-1H-pyrazole-4-carbonitrile]",35,65,82,
7.51,,"Cc1c(C(O)CN2CCc3nc(N4CCc5c(C#N)cccc54)ncc3C2)ccc2c1COC2=O (single isomer, unassigned) [Example 65-I, 1-(6-(2-hydroxy-2-(4-methyl-1-oxo-1,3-dihydroisobenzofuran-5-yl)ethyl)-5,6,7,8-tetrahydropyrido[4,3-d]pyrimidin-2-yl)indoline-4-carbonitrile]",56,,,
7.52,,"Cc1c(C(O)CN2CCc3nc(-n4nc(C#N)c5ccccc54)ncc3C2)ccc2c1COC2=O (single isomer, unassigned) [Example 60-I, 1-(6-(2-hydroxy-2-(4-methyl-1-oxo-1,3-dihydroisobenzofuran-5-yl)ethyl)-5,6,7,8-tetrahydropyrido[4,3-d]pyrimidin-2-yl)-1H-indazole-3-carbonitrile]",92,,,
7.54,7.51,"N#Cc1ccc(Nc2ccc3c(c2)CCN(Cc2ccc4c(c2)COC4=O)C3)cc1F [Example 4, 2-fluoro-4-((2-((1-oxo-1,3-dihydroisobenzofuran-5-yl)methyl)-1,2,3,4-tetrahydroisoquinolin-6-yl)amino)benzonitrile]",94,,,
7.54,7.64,"Cc1c(C(O)CN2CCc3nc(-n4cc(C#N)c5ncccc54)ncc3C2)ccc2c1COC2=O (single isomer, unassigned) [Example 68-I, 1-(6-(2-hydroxy-2-(4-methyl-1-oxo-1,3-dihydroisobenzofuran-5-yl)ethyl)-5,6,7,8-tetrahydropyrido[4,3-d]pyrimidin-2-yl)-1H-pyrrolo[3,2-b]pyridine-3-carbonitrile]",22,54,86,
7.55,,"Cc1c(C(O)CN2CCc3nc(-n4cc(C#N)c5ccccc54)ncc3C2)ccc2c1COC2=O (single isomer, unassigned) [Example 8-I, 1-(6-(2-hydroxy-2-(4-methyl-1-oxo-1,3-dihydroisobenzofuran-5-yl)ethyl)-5,6,7,8-tetrahydropyrido[4,3-d]pyrimidin-2-yl)-1H-indole-3-carbonitrile]",98,,,
